Measured values as given in patent publication US5869234A, “Method of identifying compounds which modulate herpesvirus infection” (President and Fellows of Harvard College, priority 1996, dated 1999).
Ends that are not written are not given here.

What was measured:
[1] = cited from earlier work
viral DNA synthesis = conditions: cited from earlier work
[2] = biological target: T1, protein kinase A type I catalytic subunit (Bos taurus, UniProt P00517); assay: In vitro phosphorylation of a synthetic peptide by PKA; type: biochemical, bovine; conditions: for Ratio**: ratio defined in footnote drawing 1
T1 construct: purchased Sigma Chem. Co; host or cells: bovine heart
Protocol: (§1) ii) In vitro phosphorylation of a synthetic peptide. A peptide containing a potential protein kinase A site in the serine-rich region of ICP4 (RRRRHGRWRPSASST, residues 165-179) (SEQ ID NO: 2 ) was synthesized on an Applied Biosystems model 430A automated peptide synthesizer and purified by HPLC. Amino acid analysis confirmed the authenticity of this peptide, termed ICP4tide. ICP4tide (100 μM), or Kemptide (LRRASLG, Sigma Inc.), a commercially available substrate for protein kinase A ([…]), was then incubated at 30° C. in a solution containing 24 mM MES (pH 7.0), […], 5.6 nM [^32 P]ATP (300-600 Ci/mmol). Each reaction was subsequently initiated by adding 80 U of protein kinase A type I catalytic subunit purified from bovine heart (Sigma Chem. Co., 1000U/0.016 mg protein) to a final volume of 52.5 μl. Following incubation for 4 minutes, 20 μl of the reaction was spotted onto P81 phosphocellulose strips, and phosphopeptides were quantitated after washing three times in […] of 75 mM phosphoric acid as previously described (Roskoski, R. Jr., Methods in Enzymology, 99:3-6 (1983)). For kinetic studies, the concentration of ICP4tide was varied as indicated. The ICP4tide was also phosphorylated in a manner similar to those described below for phosphorylation of purified ICP4 proteins with PKA except that synthetic peptide replaced the purified ICP4 and the ATP concentration was increased to 60 mM. Such phosphorylated peptides were resolved in a 27% SDS-polyacrylamide gel.
(§2) Accordingly, a peptide, named ICP4tide (RRRRHGRWRPSASST, residues 165-179) (SEQ ID NO: 2), corresponding to this potential site was synthesized and incubated in vitro with purified type I catalytic subunits of PKA and [γ-^32 P]ATP. Kemptide (LRRASLG) (SEQ ID NO: 5), a commercially available substrate for PKA, was used as a positive control.
(§3) To determine the Km values of these reactions, we incubated different concentrations of ICP4tide with [Y-^32 P]ATP and a fixed amount of PKA catalytic subunits (80 U each) for 4 min at 30° C. Varying amounts of ICP4tide were incubated with […] of PKA and 60 μM ATP, and the incorporation of ^32 P into ICP4tide was determined. From the Lineweaver-Burk representation of the data, the Km was determined as described (Michael, N., Spector, D., Mavromara-Nazos, P., Kristie, T. M. and Roizman, B., Science, 239:1531-1534 (1988)). […] Thus, the synthetic ICP4tide could be considered to be a good substrate for PKA in vitro.

ICP4 = assay: In vitro phosphorylation of purified ICP4 without added kinase; type: biochemical, HSV-1; conditions: 1 mM
Protocol: In vitro phosphorylation of purified ICP4 proteins with PKA or without added kinase. Approximately 20 ng of the ICP4 protein purified as described previously (Imbalzano, A. N., Shepard, A. A. and DeLuca, N. A., J. Virol., 64:2620-2631 (1990)) was added to a solution containing 10 mM Tris (pH 7.2), 10 mM MgCl2, 50 mM NaCl, 10 mM DTT and 20 μM (0.15 mCi) [γ-^32 P]ATP. The phosphorylation reaction was initiated by adding 60 U of protein kinase A type I catalytic subunit purified from bovine heart (Sigma Chem. Co., 1000 U/0.016 mg protein). Reaction mixtures were incubated at 30° C. for 30 min and stopped by addition of SDS-sample buffer. Equal portions of the reactions were analyzed by SDS-PAGE and transferred onto a nitrocellulose sheet for exposure to Kodak X-AR film and for staining with an ICP4-specific antibody. In some cases, the reaction mixtures were terminated by addition of 0.5 ml lysis buffer, and immunoprecipitation was conducted exactly as described above.
When an equivalent amount of d8-10 ICP4 protein was incubated, no labeled band was observed (Example 1; FIG. 5A, lane 3). The amount of phosphorylation in the absence of added enzyme was approximately one-tenth the level of phosphorylation in the presence of PKA. This phosphorylation in the absence of added enzyme may have resulted from an enzyme tightly bound to ICP4 or from an activity intrinsic to ICP4 itself. […]

[3] = system: CC(C)C[C@H](NC(=O)[C@H](CO)NC(=O)[C@H](C)NC(=O)[C@H](CCCNC(=N)N)NC(=O)[C@H](CCCNC(=N)N)NC(=O)[C@@H](N)CC(C)C)C(=O)NCC(=O)O; assay: In vitro phosphorylation of a synthetic peptide by PKA; type: biochemical, bovine; conditions: other: Lineweaver-Burk, PKA catalytic subunits, 4 min at 30° C., 60 μM ATP, pH 7.0
Protocol: as §1, §2, §3

Row | Compound | effect on viral DNA synthesis (viral DNA synthesis) | Phosphorylation (cpm) ([2]; +PKA) | γ^32 P incorporated (%) ([2]; +PKA) | Ratio** ([2]; +PKA) | Phosphorylation (cpm) ([2]; -PKA) | γ^32 P incorporated (%) ([2]; -PKA) | also measured
1 | Nc1ncnc2c1ncn2[C@@H]1O[C@H](CO)[C@@H](O)[C@@H]1O [vidarabine] | inhibits viral DNA synthesis |  |  |  |  |  | properties in some experimental models [1]: teratogenic, mutagenic and carcinogenic properties
2 | LRRASLG [Kemptide, LRRASLG] |  | 768687 | 26.1 | 88.5 | 8682 | 0.3 | 
3 | Nc1nc2c(ncn2COCCO)c(=O)[nH]1 [acyclovir] | inhibits viral DNA synthesis |  |  |  |  |  | 
4 | RRRRHGRWRPSASST [ICP4tide] |  | 182104 | 6.2 | 26.2 | 6946 | 0.24 | Km ([2]; Lineweaver-Burk, PKA catalytic subunits, 4 min at 30° C., 60 μM ATP): 39 µM; phosphorylation by PKA, in words ([2]; compared with Kemptide): strongly phosphorylated
5 | [Mn+2] [Mn^+2] |  |  |  |  |  |  | effect on phosphorylation of ICP4 in the absence of added kinase (ICP4): inhibited
6 | protein kinase A type I catalytic subunit (Bos taurus) |  |  |  |  |  |  | Km [3]: 9 µM
